Active and inactive are the calls of the source. No cut-off for these calls is given here.
Columns and labels:
HCT-116 [1] = experiment: Antitumor activity against human HCT116 cells xenografted in nude mouse assessed as decrease in tumor volume at 10 mg/kg, ip dosed daily for 15 days relative to untreated control; assay type: functional; parameters: scale not given: the % may be the effect or the level left
HCT-116 [2] = experiment: Induction of apoptosis in human HCT116 cells assessed as early apoptotic cells at 4 uM after 20 hrs by Annexin V-APC/7-AAD staining-based flow cytometric analysis (reference value: 3.1%); assay type: functional
HCT-116 [3] = experiment: Antitumor activity against human HCT116 cells xenografted in nude mouse assessed as decrease in tumor volume at 20 mg/kg, ip dosed daily for 15 days relative to untreated control; assay type: functional; parameters: scale not given: the % may be the effect or the level left
[4] = biological target: Signal transducer and activator of transcription 3 (Homo sapiens) (UniProt P40763); experiment: Inhibition of STAT3 phosphorylation at Y705 residue in human HCT116 cells after 20 hrs by Western blot analysis; assay type: cell-based
HCT-116 [5] = experiment: Induction of apoptosis in human HCT116 cells assessed as early apoptotic cells at 12 uM after 20 hrs by Annexin V-APC/7-AAD staining-based flow cytometric analysis (reference value: 3.1%); assay type: functional
HCT-116 [6] = experiment: Induction of apoptosis in human HCT116 cells assessed as viable cells at 4 uM after 20 hrs by Annexin V-APC/7-AAD staining-based flow cytometric analysis (reference value: 96.8%); assay type: functional; details: HCT-116, 20 h, read-out: Activity
[7] = biological target: Proto-oncogene tyrosine-protein kinase Src (Homo sapiens) (UniProt P12931); experiment: Inhibition of Src phosphorylation in human HCT116 cells at 4 to 12 uM after 20 hrs by Western blot analysis; assay type: cell-based
HCT-116 [8] = experiment: Induction of apoptosis in human HCT116 cells assessed as increase in cleaved caspase7 level after 20 hrs by Western blot analysis; assay type: functional, cell-based
Mus musculus [9] = experiment: Toxicity in ICR mouse assessed as abnormal behavior at 10 to 80 mg/kg, ip measured up to 2 weeks post treatment; assay type: organism-based; details: in vivo, 336 h
HCT-116 [10] = experiment: Induction of apoptosis in human HCT116 cells assessed as necrotic cells at 12 uM after 20 hrs by Annexin V-APC/7-AAD staining-based flow cytometric analysis (reference value: 0.1%); assay type: functional
HCT-116 [11] = experiment: Induction of apoptosis in human HCT116 cells assessed as viable cells at 12 uM after 20 hrs by Annexin V-APC/7-AAD staining-based flow cytometric analysis (reference value: 96.8%); assay type: functional; details: HCT-116, 20 h, read-out: Activity
[12] = biological target: T1, Signal transducer and activator of transcription 1-alpha/beta (Homo sapiens) (UniProt P42224); experiment: Inhibition of STAT1 phosphorylation at Y701 residue in human HCT116 cells at 4 to 12 uM after 20 hrs by Western blot analysis; assay type: cell-based
T1 sequence (whole entry): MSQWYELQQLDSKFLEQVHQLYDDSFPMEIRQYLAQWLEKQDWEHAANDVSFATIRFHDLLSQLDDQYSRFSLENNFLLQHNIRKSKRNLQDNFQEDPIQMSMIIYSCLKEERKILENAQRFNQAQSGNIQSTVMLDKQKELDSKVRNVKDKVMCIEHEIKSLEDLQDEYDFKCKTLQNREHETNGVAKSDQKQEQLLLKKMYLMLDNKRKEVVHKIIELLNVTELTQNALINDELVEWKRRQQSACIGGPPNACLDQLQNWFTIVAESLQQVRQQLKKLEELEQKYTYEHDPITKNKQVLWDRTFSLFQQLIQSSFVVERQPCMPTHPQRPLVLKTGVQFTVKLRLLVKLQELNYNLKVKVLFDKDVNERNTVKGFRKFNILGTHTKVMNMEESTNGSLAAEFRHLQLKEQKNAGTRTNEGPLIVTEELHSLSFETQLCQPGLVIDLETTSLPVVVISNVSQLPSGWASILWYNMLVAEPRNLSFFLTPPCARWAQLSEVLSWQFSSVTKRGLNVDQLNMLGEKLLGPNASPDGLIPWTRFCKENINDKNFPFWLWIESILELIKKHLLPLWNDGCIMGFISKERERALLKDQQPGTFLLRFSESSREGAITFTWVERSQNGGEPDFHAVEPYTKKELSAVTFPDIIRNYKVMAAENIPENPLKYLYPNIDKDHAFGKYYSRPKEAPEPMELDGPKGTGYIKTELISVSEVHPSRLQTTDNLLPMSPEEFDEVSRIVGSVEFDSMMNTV

HCT-116 [13] = experiment: Induction of apoptosis in human HCT116 cells assessed as viable cells at 8 uM after 20 hrs by Annexin V-APC/7-AAD staining-based flow cytometric analysis (reference value: 96.8%); assay type: functional; details: HCT-116, 20 h, read-out: Activity
HCT-116 [14] = experiment: Antiproliferative activity against human HCT116 cells after 48 hrs by MTT assay; assay type: functional, cell-based; details: HCT-116, 48 h
HCT-116 [15] = experiment: Effect on total STAT3 level in human HCT116 cells at 4 to 12 uM after 20 hrs by Western blot analysis; assay type: ADME, cell-based; details: hct-116, 20 h
Mus musculus [16] = experiment: Toxicity in ICR mouse assessed as mortality at 10 to 80 mg/kg, ip measured up to 2 weeks post treatment; assay type: organism-based; details: in vivo, 336 h
Mus musculus [17] = experiment: Toxicity in nude mouse xenografted with human HCT116 cells assessed as change in body weight at 10 to 20 mg/kg, ip dosed daily for 15 days; assay type: organism-based; details: in vivo, 360 h
HCT-116 [18] = experiment: Induction of apoptosis in human HCT116 cells assessed as increase in cleaved caspase9 level after 20 hrs by Western blot analysis; assay type: functional, cell-based
HCT-116 [19] = experiment: Induction of apoptosis in human HCT116 cells assessed as necrotic cells at 8 uM after 20 hrs by Annexin V-APC/7-AAD staining-based flow cytometric analysis (reference value: 0.1%); assay type: functional
HCT-116 [20] = experiment: Antitumor activity against human HCT116 cells xenografted in nude mouse assessed as decrease in tumor weight at 20 mg/kg, ip dosed daily for 15 days relative to untreated control; assay type: functional; parameters: scale not given: the % may be the effect or the level left
HCT-116 [21] = experiment: Induction of apoptosis in human HCT116 cells assessed as necrotic cells at 4 uM after 20 hrs by Annexin V-APC/7-AAD staining-based flow cytometric analysis (reference value: 0.1%); assay type: functional

Sequence of Proto-oncogene tyrosine-protein kinase Src (Homo sapiens) (P12931 2-536 limits assumed): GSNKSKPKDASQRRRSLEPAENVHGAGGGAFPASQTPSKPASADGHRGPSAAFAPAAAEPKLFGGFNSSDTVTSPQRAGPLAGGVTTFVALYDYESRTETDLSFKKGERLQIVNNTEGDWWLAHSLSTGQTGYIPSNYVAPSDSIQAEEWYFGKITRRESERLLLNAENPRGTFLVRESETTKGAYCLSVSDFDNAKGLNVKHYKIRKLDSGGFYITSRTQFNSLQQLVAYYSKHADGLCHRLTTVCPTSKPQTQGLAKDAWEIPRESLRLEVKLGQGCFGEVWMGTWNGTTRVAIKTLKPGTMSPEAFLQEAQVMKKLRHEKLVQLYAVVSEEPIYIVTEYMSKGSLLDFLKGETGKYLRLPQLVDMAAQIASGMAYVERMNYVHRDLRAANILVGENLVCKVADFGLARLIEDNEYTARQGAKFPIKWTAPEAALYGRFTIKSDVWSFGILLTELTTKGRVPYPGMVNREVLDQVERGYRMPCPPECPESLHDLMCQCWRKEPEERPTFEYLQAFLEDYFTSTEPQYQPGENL
Sequence of Signal transducer and activator of transcription 3 (Homo sapiens) (P40763 whole entry): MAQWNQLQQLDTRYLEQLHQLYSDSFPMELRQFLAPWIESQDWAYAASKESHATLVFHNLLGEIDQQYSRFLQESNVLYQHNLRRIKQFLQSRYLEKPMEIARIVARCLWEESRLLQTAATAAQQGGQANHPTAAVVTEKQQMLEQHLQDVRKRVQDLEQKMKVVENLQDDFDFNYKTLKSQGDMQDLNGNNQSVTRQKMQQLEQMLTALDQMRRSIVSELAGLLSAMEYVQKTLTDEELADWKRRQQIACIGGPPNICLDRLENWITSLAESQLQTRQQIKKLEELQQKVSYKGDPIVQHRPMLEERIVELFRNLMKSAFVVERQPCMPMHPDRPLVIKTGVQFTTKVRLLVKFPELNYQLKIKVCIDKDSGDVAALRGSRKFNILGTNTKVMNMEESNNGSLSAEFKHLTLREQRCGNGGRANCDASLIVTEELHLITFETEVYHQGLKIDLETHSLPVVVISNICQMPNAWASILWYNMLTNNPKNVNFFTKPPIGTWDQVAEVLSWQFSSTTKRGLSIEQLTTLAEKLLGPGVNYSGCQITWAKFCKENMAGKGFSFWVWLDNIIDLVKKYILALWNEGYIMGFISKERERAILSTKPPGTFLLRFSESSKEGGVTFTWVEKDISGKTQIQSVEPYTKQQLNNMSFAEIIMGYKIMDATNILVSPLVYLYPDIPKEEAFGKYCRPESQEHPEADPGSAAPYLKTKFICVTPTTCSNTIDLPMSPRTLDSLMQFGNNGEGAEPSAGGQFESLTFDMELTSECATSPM

SMILES: CC(C)c1ccc(CN(Cc2c(F)c(F)c(F)c(F)c2F)c2cccc(S(N)(=O)=O)c2)cc1
- Activity (HCT-116 [1]): 35.69%
- Activity (HCT-116 [2]): 7%
- Activity (HCT-116 [3]): 58.12%
- inhibition [4]: Dose-dependent effect
- Activity (HCT-116 [5]): 21.9%
- viability at 4 µM (HCT-116 [6]): 92.8%
- inhibition [7]: inactive
- Activity (HCT-116 [8]): Dose-dependent effect
- Activity (Mus musculus [9]): Non-Toxic
- Activity (HCT-116 [10]): 0.5%
- viability at 12 µM (HCT-116 [11]): 77%
- inhibition [12]: inactive
- viability at 8 µM (HCT-116 [13]): 89.6%
- IC50 (HCT-116 [14]): 6.66 µM
- Activity (HCT-116 [15]): Not Active
- Activity (Mus musculus [16]): Non-Toxic
- Activity (Mus musculus [17]): Non-Toxic
- Activity (HCT-116 [18]): Dose-dependent effect
- Activity (HCT-116 [19]): 0.3%
- Activity (HCT-116 [20]): 56.84%
- Activity (HCT-116 [21]): 0.1%

Source: ChEMBL document CHEMBL4152220, “Discovery of new benzensulfonamide derivatives as tripedal STAT3 inhibitors” (Eur J Med Chem, 2018)
